For this series the following is noted: Liquid; for Critical pressure: Direct measurement; for Critical density: Rectilinear diameter; for Critical temperature: Visual observation in an unstirred cell.

± gives the expanded uncertainty stated by the source.

In the case of `C=CCC` [1-butene], the Critical pressure turned out to be 4000 ± 60 kPa, the Critical density is 233 ± 7 kg/m3 and the Critical temperature was 421.2 ± 0.6 K.

For the molecule `CC(C)CC(C)(C)C` [2,2,4-trimethylpentane], the Critical pressure is 2570 ± 60 kPa, the Critical density is given as 251 ± 7 kg/m3 and the Critical temperature was found to be 544.1 ± 0.6 K.

In the case of `CC(C)C` [2-methylpropane], the Critical pressure is recorded as 3620 ± 60 kPa, the Critical density is on record as 220 ± 6 kg/m3 and the Critical temperature is 409.9 ± 0.6 K.

`O=C=O` [carbon dioxide]: the Critical pressure is reported as 7380 ± 60 kPa, the Critical density was 473 ± 8 kg/m3 and the Critical temperature is given as 304.8 ± 0.6 K.

(Values after the NIST ThermoML archive (doi:10.1021/je700132w).)
